Entries after “also recorded” stand apart in the source; their conditions may differ. Like-named read-outs stand apart in the source and are kept apart here.
What was measured:
Assay type in all cases: cell-based
syn-pre-pro-Δ89-CB1R [1] = molecular target: T1, syn-pre-pro-Δ89-CB1R (Homo sapiens, UniProt P21554); assay: cell-based; conditions: for EC50 values / activity in words: PINACA agonist series
T1 construct: expressed in transfected cells; host or cells: Saccharomyces cerevisiae BY4741-derived ZsGreen reporter strain (Gpa1-Gαi3 chimera; also sterol-modified strains ST01–ST15)

CB1 Cannabinoid Receptor = molecular target: T2, CB1 Cannabinoid Receptor (Homo sapiens, UniProt P21554); assay: Mammalian cell calcium assay (Gα15, Fluo-8 fluorescence); conditions: high concentrations (10 μM), four-point dose response
T2 construct: Since the human CB1R strain uses the full-length receptor; host or cells: Ready-to-Assay CB1 Cannabinoid Receptor Frozen Cells (commercial human cell line with promiscuous Gα15, division-arrested)
Protocol: To validate the findings and further evaluate the performance of our yeast screening assay, we retested a subset of our library in a conventional mammalian cell assay. We acquired human cell lines depleted of native GPCRs and containing the promiscuous Gα15, wherein GPCR activation triggers intracellular calcium release, which is measured by Fluo-8 fluorescence (see Section 4). We selected eight compounds for side-by-side testing between the yeast and human host for CB1R (Figure 4a–d). To maximize the number of compounds tested per plate, we performed a limited four-point dose response on the mammalian cells (Figure 4a,b).
Mammalian cell assays were performed in Eurofins Ready-to-Assay™ CB1 Cannabinoid Receptor Frozen Cells. Cells were division-arrested, which limited the number of samples that could be measured, so a limited 4-point dose response was performed. Cells were seeded in 96-well plates and grown for 24 h. Cells were washed with Hank’s Balanced Salt Solution (HBSS) with 20 mM HEPES and 2.5 mM Probenecid at pH 7.4. […] Cells with dye were incubated at 37 °C for 1 h before fluorescent measurement on a Flexstation 3-plate reader (Molecular Devices, San Jose, CA, USA). Baseline fluorescence was measured for 10 s before 50 μL ligands were injected into 100 μL cells. Samples were measured for 180 s and recorded values were measured as ΔF/F0 (Fmax − Fmin/Fmin).

Δ89-CB1R = molecular target: T3, Δ89-CB1R (Homo sapiens, UniProt P21554); assay: Yeast ZsGreen reporter strain with N-terminally truncated CB1R
T3 construct: expressed in transfected cells; host or cells: Saccharomyces cerevisiae BY4741-derived ZsGreen reporter strain (Gpa1-Gαi3 chimera)

syn-pre-pro-Δ89-CB1R [2] = molecular target: T1, syn-pre-pro-Δ89-CB1R; assay: syn-pre-pro-Δ89-CB1R dose response in sterol-modified yeast strains ST01–ST15
Source text: Ergosterol and cholesterol share a common zymosterol precursor that can be converted to cholesterol through a four-enzyme pathway that produces seven downstream metabolites (Figure 2b). We recently replaced the native yeast sterol pathway with cholesterol biosynthesis enzymes to create a small library of yeast strains that produce varying levels of these seven metabolites in the GpaI-Gai3 chimeric ZsGreen human GPCR reporter strain [30]. The syn-pre-pro-Δ89-CB1R expression construct was transformed into fifteen strains (ST01–ST15, Figure 2c, Supplementary Table S1) selected to cover the metabolic and structural sterol space. We then performed dose response experiments with ACEA and measured the ZsGreen via fluorescent cytometry.
Yeast colonies were picked and grown overnight to saturation in pH 5.8 SD-His media in a 2.2 mL deep well plate (Axygen, Corning, NY, USA), grown in a plate-shaking incubator (30 °C, 1000 rpm, 3 mm orbital). In the morning, cultures were diluted to 1:10 or 1:25 in SD-His media buffered to pH 7.1 with 100 mM MOPSO (unless otherwise specified). Ligands were added to the culture and incubated with shaking for 8 h. Cells were then washed three times with ice-cold Tris buffer (pH 7) and diluted to 1:20 for cytometry. All cytometry was performed on a Sony SA3800 spectral analyzer. Each sample was tested for 10,000 events and read at a rate of 1000 events per second. All assays as reported here were filtered only for singlet populations.

Syn-pre-pro CB1R = molecular target: T4, Syn-pre-pro CB1R (Homo sapiens, UniProt P21554); assay: Yeast ZsGreen reporter strain with full-length syn-pre-pro CB1R
T4 construct: expressed in transfected cells; host or cells: Saccharomyces cerevisiae BY4741-derived ZsGreen reporter strain (Gpa1-Gαi3 chimera)

WT CB1R = molecular target: T5, WT CB1R (Homo sapiens, UniProt P21554)
T5 construct: expressed in transfected cells; host or cells: Saccharomyces cerevisiae BY4741-derived ZsGreen reporter strain (Gpa1-Gαi3 chimera)

[3] = FUBINACA and PINACA compounds, 8 h, n = 3 (Figure 3), read-out: EC50, dose response
[4] = Supplementary Table S2, read-out: EC50 (M) Yeast CB1R
[5] = read-out: EC50, ACEA dose response
[6] = compound at 10 nM, screen, n = 1

T1 sequence (P21554 90-472 limits assumed, stated change not applied): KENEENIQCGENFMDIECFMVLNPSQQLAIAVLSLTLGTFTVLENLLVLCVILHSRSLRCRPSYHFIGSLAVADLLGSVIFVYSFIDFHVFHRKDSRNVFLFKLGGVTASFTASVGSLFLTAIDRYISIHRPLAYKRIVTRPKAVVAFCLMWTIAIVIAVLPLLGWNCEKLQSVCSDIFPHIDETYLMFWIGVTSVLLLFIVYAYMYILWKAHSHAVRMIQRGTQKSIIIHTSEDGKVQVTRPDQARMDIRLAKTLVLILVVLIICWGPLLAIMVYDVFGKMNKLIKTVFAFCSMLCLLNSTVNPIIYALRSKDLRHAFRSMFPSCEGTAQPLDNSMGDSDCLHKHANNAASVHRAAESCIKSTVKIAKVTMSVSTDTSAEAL
T3 sequence (P21554 with tags, fused parts or gaps): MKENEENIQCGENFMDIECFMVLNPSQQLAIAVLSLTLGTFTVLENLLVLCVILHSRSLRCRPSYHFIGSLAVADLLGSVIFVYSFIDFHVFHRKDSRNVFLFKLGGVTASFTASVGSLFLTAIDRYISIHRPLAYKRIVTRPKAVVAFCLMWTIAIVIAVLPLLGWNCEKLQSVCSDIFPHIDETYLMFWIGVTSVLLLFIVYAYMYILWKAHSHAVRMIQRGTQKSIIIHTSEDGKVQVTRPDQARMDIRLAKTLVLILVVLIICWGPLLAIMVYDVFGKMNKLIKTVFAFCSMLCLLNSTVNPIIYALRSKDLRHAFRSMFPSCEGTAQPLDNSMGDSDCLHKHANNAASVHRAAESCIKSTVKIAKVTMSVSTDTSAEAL
T4 sequence (P21554 whole entry): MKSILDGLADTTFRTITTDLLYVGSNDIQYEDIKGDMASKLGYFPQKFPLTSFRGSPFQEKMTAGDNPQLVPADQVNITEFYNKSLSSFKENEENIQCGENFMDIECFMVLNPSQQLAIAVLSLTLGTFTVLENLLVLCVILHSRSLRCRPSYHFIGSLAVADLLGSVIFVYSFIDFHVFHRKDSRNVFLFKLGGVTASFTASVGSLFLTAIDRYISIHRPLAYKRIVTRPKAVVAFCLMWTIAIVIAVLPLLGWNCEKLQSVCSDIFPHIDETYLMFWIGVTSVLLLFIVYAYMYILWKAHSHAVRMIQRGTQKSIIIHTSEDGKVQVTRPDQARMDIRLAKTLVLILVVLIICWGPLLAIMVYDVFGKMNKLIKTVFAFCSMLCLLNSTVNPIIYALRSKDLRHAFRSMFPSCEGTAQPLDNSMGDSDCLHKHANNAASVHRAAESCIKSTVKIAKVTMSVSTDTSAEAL
T5 sequence (P21554 whole entry): as above
T2 sequence (P21554 whole entry): as above

CC[C@H](C)[C@H](NC(=O)c1nn(CCCCCF)c2ccccc12)C(N)=O (single isomer, unassigned) [5-fluoro ADB-PINACA isomer 2]
EC50 values / activity in words (syn-pre-pro-Δ89-CB1R [1]): drastic loss of activity | activity in the yeast assay (syn-pre-pro-Δ89-CB1R [1]; side-by-side with mammalian cells, high concentrations (10 μM), listed as 5-fluoro 2-ADB-PINACA isomer 2): lowest activity; also recorded: partial agonism | induction of calcium dye fluorescence (CB1 Cannabinoid Receptor): failed to induce significant levels of fluorescence

CCCC(NC(=O)c1nn(Cc2ccc(F)cc2)c2ccccc12)C(N)=O (single isomer, unassigned) [AB-FUBINACA isomer 1]
maximal signaling in dose response (syn-pre-pro-Δ89-CB1R [1]): high maximal signaling | EC50 (syn-pre-pro-Δ89-CB1R [1]; [3]): 1e-11 M | EC50 (syn-pre-pro-Δ89-CB1R [1]; [4]): 4.74e-10 M

CCC(C)(NC(=O)c1nn(Cc2ccc(F)cc2)c2ccccc12)C(N)=O (single isomer, unassigned) [AB-FUBINACA isomer 2]
maximal signaling in dose response (syn-pre-pro-Δ89-CB1R [1]): lower response | EC50 (syn-pre-pro-Δ89-CB1R [1]; [3]): 2.3e-10 M

CCC(C(N)=O)N(C)C(=O)c1nn(Cc2ccc(F)cc2)c2ccccc12 (single isomer, unassigned) [AB-FUBINACA isomer 5]
maximal signaling in dose response (syn-pre-pro-Δ89-CB1R [1]): lower response | EC50 (syn-pre-pro-Δ89-CB1R [1]; [3]): 1.59e-08 M

O=C(Oc1cccc2cnccc12)c1cn(CCCCCF)c2ccccc12 [5-fluoro PB-22 5-hydroxyisoquinoline isomer]
EC50 (syn-pre-pro-Δ89-CB1R [1]; [4]): 9.09e-12 M

CC(C)=CCCC(C)CCO (stereo not drawn) [(+)-β-Citronellol]
activity in terpene library screen (syn-pre-pro-Δ89-CB1R [1]): found to activate CB1R

CC(C)[C@H](NC(=O)c1cn(Cc2ccccc2)c2ccccc12)C(N)=O [AB-BICA]
EC50 (syn-pre-pro-Δ89-CB1R [1]; [4]): 5.66e-09 M

CC(C)C(NC(=O)c1nn(Cc2ccc(F)cc2)c2ccccc12)C(N)=O (stereo not drawn) [AB-FUBINACA]
maximal activity (syn-pre-pro-Δ89-CB1R [1]): 79–84% | maximal signaling in dose response (syn-pre-pro-Δ89-CB1R [1]): high maximal signaling | EC50 (syn-pre-pro-Δ89-CB1R [1]; EC50 (M) Yeast CB1R): 1.13e-11 M | EC50 (syn-pre-pro-Δ89-CB1R [1]; EC50, dose response): 6.6e-10 M

CCCCCn1nc(C(=O)NC(C(N)=O)C(C)C)c2ccccc21 (stereo not drawn) [AB-PINACA]
maximal activity (syn-pre-pro-Δ89-CB1R [1]): 79–84% | EC50 (syn-pre-pro-Δ89-CB1R [1]; [3]): 1.21e-09 M | EC50 values / activity in words (syn-pre-pro-Δ89-CB1R [1]): low nanomolar range

CCCCC/C=C\C/C=C\C/C=C\C/C=C\CCCC(=O)NCCCl [ACEA, Arachidonyl-2′-chloroethylamide]
fold activation (Δ89-CB1R; truncated receptor): 15 fold | EC50 (Δ89-CB1R; Δ89-CB1R in yeast, 8 h, n = 3, read-out: EC50, ACEA dose response): 5050 nM | Fold Change CB1R (syn-pre-pro-Δ89-CB1R [2]; Strain ST01): 73.2 fold | EC50 (syn-pre-pro-Δ89-CB1R [2]; Strain ST01, read-out: EC50): 73 nM | EC50 (syn-pre-pro-Δ89-CB1R [2]; Strain ST02, read-out: EC50): 305 nM | EC50 (syn-pre-pro-Δ89-CB1R [2]; Strain ST03, read-out: EC50): 144 nM | EC50 (syn-pre-pro-Δ89-CB1R [2]; Strain ST04, read-out: EC50): 96 nM | EC50 (syn-pre-pro-Δ89-CB1R [2]; Strain ST05, read-out: EC50): 107 nM | EC50 (syn-pre-pro-Δ89-CB1R [2]; Strain ST06, read-out: EC50): 74 nM | EC50 (syn-pre-pro-Δ89-CB1R [2]; Strain ST08, read-out: EC50): 102 nM | EC50 (syn-pre-pro-Δ89-CB1R [2]; Strain ST09, read-out: EC50): 134 nM | EC50 (syn-pre-pro-Δ89-CB1R [2]; Strain ST10, read-out: EC50): 253 nM | EC50 (syn-pre-pro-Δ89-CB1R [2]; Strain ST11, read-out: EC50): 160 nM | EC50 (syn-pre-pro-Δ89-CB1R [2]; Strain ST12, read-out: EC50): 140 nM | Fold Change CB1R (syn-pre-pro-Δ89-CB1R [2]; Strain ST13): 34.3 fold | EC50 (syn-pre-pro-Δ89-CB1R [2]; Strain ST13, read-out: EC50): 99 nM | EC50 (syn-pre-pro-Δ89-CB1R [2]; Strain ST14, read-out: EC50): 640 nM | EC50 (syn-pre-pro-Δ89-CB1R [2]; Strain ST15, read-out: EC50): 604 nM | EC50 (syn-pre-pro-Δ89-CB1R [2]; cholesterol intermediate strain ST07, text value, read-out: EC50): 65 nM | EC50 (syn-pre-pro-Δ89-CB1R [2]; mean over ST01–ST15, read-out: average EC50 value across the intermediate strains): 199 nM | Fold Change CB1R (syn-pre-pro-Δ89-CB1R [1]): 93.6 ± 15.6 fold | drop in sensitivity compared to the full-length syn-pre-pro construct (syn-pre-pro-Δ89-CB1R [1]): 3.8 fold | fold activation (syn-pre-pro-Δ89-CB1R [1]): 28 fold | EC50 (syn-pre-pro-Δ89-CB1R [1]; [5]): 1.5e-07 M | EC50 (Syn-pre-pro CB1R; Syn-pre-pro CB1R in yeast, 8 h, n = 3, read-out: EC50, ACEA dose response): 40 nM | fold activation (Syn-pre-pro CB1R; syn-pre-pro modification alone): approximately 7 fold | fold signaling (activation) (WT CB1R): < 4 fold | EC50 (WT CB1R; [5]): 1300 nM

CCCCCn1nc(C(=O)NC(C(N)=O)C(C)(C)C)c2ccccc21 (stereo not drawn) [ADB-PINACA]
maximal activity (syn-pre-pro-Δ89-CB1R [1]): 79–84% | EC50 (syn-pre-pro-Δ89-CB1R [1]; [3]): 9e-11 M | EC50 values / activity in words (syn-pre-pro-Δ89-CB1R [1]): low nanomolar range | EC50 (syn-pre-pro-Δ89-CB1R [1]; [4]): 8.34e-12 M

CCCCCCC(C)(C)c1cc(O)c2c(c1)OC(C)(C)[C@H]1CC=C(CO)C[C@H]21 [HU-211]
relative fluorescence of the ACEA positive control (syn-pre-pro-Δ89-CB1R [1]): less than 25%

Cc1c(C(=O)c2ccccc2)c(N)c(-c2ccccc2)n1Cc1ccc(Cl)cc1 [URB447]
relative fluorescence of the ACEA positive control (syn-pre-pro-Δ89-CB1R [1]; [6]): less than 25%

COc1ccc(C(=O)c2c(C)n(CCN3CCOCC3)c3cc(Br)ccc23)cc1 [WIN54,461]
relative fluorescence of the ACEA positive control (syn-pre-pro-Δ89-CB1R [1]; [6]): less than 25%

C=C1CCC[C@]2(C)CC[C@@H](C(C)(C)O)C[C@@H]12 [β-Eudesmol]
activity in terpene library screen (syn-pre-pro-Δ89-CB1R [1]): found to activate CB1R | signaling in terpene dose response (syn-pre-pro-Δ89-CB1R [1]; dose response, n = 3): showed signaling at high (10 µM) concentrations
